{"source": "patent US20250367170A1", "about": "“TOPICAL ANGIOTENSIN II RECEPTOR BLOCKERS (ARBS) FOR TREATING EYE CONDITIONS” (The Cleveland Clinic Foundation, priority 2022, published 2025)", "key": {"[1]": {"tested_on": "α-smooth muscle actin (SMA) marker for myofibroblasts", "assay": "IHC for SMA, area of SMA-positive posterior fibrotic stroma (QuPath) after Descemetorhexis", "format": "in vivo, New Zealand White rabbits", "method": "At one month after surgery and treatment, an intravenous injection of 100 mg/kg Beuthanasia (Shering-Plough, Kenilworth, NJ) was given for euthanasia with the animals under general anaesthesia. Sharp Westcott scissors (Fairfield, CT, USA) and 0.12 forceps (Storz, St. Louis, MO) were used to remove the comeo-scleral rims of the sham unwounded and DMR eyes without touching the cornea. Each cornea was set in the center of a 24×24×5 mm mold (Fisher Scientific, Pittsburgh, PA, USA) and the mold was filled in liquid OCT compound (Sakura Finetek, Torrance, CA, USA). The molds and cornea-scleral rims were quick frozen on dry ice and stored at −80° C. until sections were cut.\nEach OCT block was bisected in the exact center of the cornea, and 8 μm thick transverse sections were cut from the central cornea within the previous DMR injury or unwounded sham surgery corneas with a cryostat (HM 505M; Micron GmbH, Walldorf, Germany) and three sections per slide were placed on 25 mm×75 mm×1 mm Superfrost Plus microscope slides (Fisher Scientific, Pittsburgh, PA, USA). Slides were maintained at −20° C. until immunohistochemistry.\nDuplex immunohistochemistry (IHC) was performed after masking of slides by a researcher not involved in the analysis using previously described methods (de Oliveira et al., 2021) using primary antibodies (Table 2) confirmed by western blotting and IHC to recognize rabbit antigens or isotypic control antibodies (ThermoFisher Scientific, Waltham, MA), and secondary fluorescent tagged antibodies (Table 3).\nThe area of the SMA-positive posterior fibrotic stroma was quantitated with the original groups masked to the analyzer by standardized photography with a lOx objective on a Leica DM6B upright microscope equipped with an automated stage and Leica 7000 T camera using the LAS X software (Leica Microsystems, GmbH, Wetzlar, Germany). The area of the SMA-positive posterior stromal fibrosis was measured by manually outlining the area on the cornea sections with calibrated QuPath v0.2.3 software using previously described methods (Bankhead et al., 2017). Statistical analysis for the area of SMA-positive fibrosis was performed using the Kruskal-Wallis test followed by post-hoc Dunn's-Bonferroni test and p<0.05 was considered statistically significant."}, "[2]": {"tested_on": "rabbit corneas after 1N NaOH alkali burn injury", "assay": "Slit lamp stromal opacity area and intensity (ImageJ) one month after alkali burn", "format": "in vivo, New Zealand White rabbits", "conditions": "topical 0.2 mg/ml losartan and/or 1% prednisolone acetate six times per day", "method": "All animal treatments and care were approved by the Institutional Animal Care and Use Committee (IACUC) at the Cleveland Clinic Foundation (Cleveland, OH, USA) and the Animal Care and Use Review Office of the Department of the Army (Fort Detrick, MD). All rabbits were treated in accordance with the tenets of the ARVO Statement for the Use of Animals in Ophthalmic and Vision Research. Sixteen 10- to 15-week-old female New Zealand White rabbits weighing 2.5 to 3.0 kg each were included in this example.\nAlkali injuries were produced in one eye of rabbits with previously published methods^10 using 1N sodium hydroxide (Sigma, St. Louis, MO) in balanced salt solution (BSS, 0.64% sodium chloride, 0.075% potassium chloride, 0.048% calcium chloride dihydrate, 0.03% magnesium chloride hexahydrate, 0.39% sodium acetate trihydrate, 0.17% sodium citrate dihydrate, pH 7.5, Alcon, Ft. Worth, TX) and a 5 mm diameter circular Whatman No. 1 filter paper (Cat #1001-6508, Fisher Scientific) wetted with 100 μl of 1N NaOH solution. Following the alkali burn injury, the cornea was irrigated profusely with BSS. Each injured cornea also received one drop of ciprofloxacin (Alcon, Ft. Worth, TX, USA) ten minutes after surgery and four times a day for one week and at least 15 minutes apart from the study medications.\nWorth TX), at least 5 minutes apart, or 4) 50 μl of BSS.\nAt one month after sodium hydroxide exposure and treatments, with the rabbits under ketamine-xylazine general anesthesia, the eyes were dilated with two drops of 1% tropicamide (Akom Co., Lake Forest, IL) for thirty minutes. The study eye in each rabbit had slit lamp photographs with standardized illumination level and angle of illumination at 20× magnification with a Topcon (Oakland, NJ, USA) SL-D7 slit lamp photography system. For each study eye, the total area of opacity was determined by outlining the opacity with the freehand selection tool using ImageJ 1.53a analysis software calibrated to mm^2. The “raw internal density” in pixels for the opacified area in each cornea was also determined using ImageJ."}}, "data": [{"smiles": "CCCCc1nc(Cl)c(CO)n1Cc1ccc(-c2ccccc2-c2nn[nH]n2)cc1", "note": "[losartan]", "values": [{"measurement": "posterior fibrosis compared with topical and oral vehicle", "setting": "[1]; Descemetorhexis, oral 5 mg/kg three times per day, one month", "value": "similar"}, {"measurement": "mean SMA-positive posterior fibrotic area vs vehicles or topical and oral losartan", "setting": "[1]; Descemetorhexis, oral losartan alone, one month", "value": "not statistically significantly different"}, {"measurement": "mean SMA-positive posterior fibrotic area compared to the other Descemetorhexis groups", "setting": "[1]; Descemetorhexis, topical 0.1 mg/ml six times a day, one month", "value": "significantly lower"}, {"measurement": "SMA-positive fibrotic zone in the posterior cornea", "setting": "[1]; Descemetorhexis, topical 0.1 mg/ml six times per day, one month", "value": "marked decrease"}, {"measurement": "SMA-positive fibrosis in the posterior cornea", "setting": "[1]; Descemetorhexis, topical six times per day and oral three times per day, one month", "value": "decrease"}, {"measurement": "SMA-positive posterior corneal fibrosis in uninjured corneas", "setting": "[1]; oral three times a day", "value": "did not develop"}, {"measurement": "SMA-positive posterior corneal fibrosis in uninjured corneas", "setting": "[1]; topical six times a day", "value": "did not develop"}, {"measurement": "total corneal opacity area measured with ImageJ, vs BSS vehicle", "setting": "[2]", "value": "decreased"}, {"measurement": "total opacity in pixels in the opacified area of cornea, vs vehicle BSS group", "setting": "[2]", "value": "significantly lower"}]}]}
